Assay results taken from patent US20210255193A1, “LYSINE REACTIVE PROBES AND USES THEREOF” (The Scripps Research Institute, priority 2017, published 2021).

Assays:
PFKM = target: T1, PFKM (Homo sapiens, UniProt P08237); assay: direct labeling of recombinantly expressed proteins by gel-based ABPP (WT vs lysine mutant); type: binding; settings: PFKM K678, KR mutant; 10 μM probe, 1 h
T1 construct: expressed in transfected cells; host or cells: HEK 293T
T1 sequence (P08237 1-780): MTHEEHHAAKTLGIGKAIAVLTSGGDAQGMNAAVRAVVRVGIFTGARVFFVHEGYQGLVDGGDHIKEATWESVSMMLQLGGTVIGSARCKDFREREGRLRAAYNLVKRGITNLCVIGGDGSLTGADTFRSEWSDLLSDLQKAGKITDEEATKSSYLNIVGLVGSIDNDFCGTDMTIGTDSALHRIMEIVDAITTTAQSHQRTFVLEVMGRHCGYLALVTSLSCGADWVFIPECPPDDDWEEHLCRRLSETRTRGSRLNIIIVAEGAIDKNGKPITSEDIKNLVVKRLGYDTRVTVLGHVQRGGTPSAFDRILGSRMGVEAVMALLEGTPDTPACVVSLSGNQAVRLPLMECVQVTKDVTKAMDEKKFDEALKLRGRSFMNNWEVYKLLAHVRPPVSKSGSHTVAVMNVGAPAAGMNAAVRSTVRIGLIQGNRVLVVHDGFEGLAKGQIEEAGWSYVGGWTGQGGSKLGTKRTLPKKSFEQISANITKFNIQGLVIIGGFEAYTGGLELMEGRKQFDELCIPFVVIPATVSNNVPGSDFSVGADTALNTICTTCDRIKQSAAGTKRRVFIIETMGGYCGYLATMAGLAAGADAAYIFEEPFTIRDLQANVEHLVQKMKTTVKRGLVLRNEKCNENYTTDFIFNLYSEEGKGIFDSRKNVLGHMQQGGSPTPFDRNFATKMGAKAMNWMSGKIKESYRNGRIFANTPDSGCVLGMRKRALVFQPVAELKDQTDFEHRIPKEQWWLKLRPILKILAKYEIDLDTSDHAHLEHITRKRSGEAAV
Text: (§1) Subcloning and mutagenesis. Unless noted below, genes were amplified from cDNA prepared from low passage HEK 293T cells using the Ribozol RNA extraction reagent (Amresco) and the iScript Reverse Transcription Supermix kit (Bio-Rad). For the following proteins cDNA clones were used for amplification instead: PFKP (5180268, Dharmacon), HK1 (BC008730, transomic), SIN3A (BC137098, transomic), G6PD (BC000337, transomic) and TGIF1 (BC031268, transomic). Mouse CARM1 in pFLAG-CMV-6c was a kind gift from the Mowen lab (TSRI). NUDT2 was obtained as synthesized gene (IDT). DNA was amplified with custom forward and reverse primers using phusion polymerase (NEB, M0530S), digested with the indicated restriction enzyme and ligated into pFLAG-CMV-6c or pRK5 with the appropriate affinity tag. Lysine mutants were generated using QuikChange site-directed mutagenesis using Phusion® High-Fidelity DNA Polymerase and primers containing the desired mutations and their respective complements. The cloning of TTR and its K35A mutant has been described in Choi et al., “Chemoselective small molecules that covalently modify one lysine in a non-enzyme protein in plasma,” Nat. Chem. Biol. 6, 133-139 (2010). TTR was expressed in E. coli and purified as described. For gel-based experiments 1 μM TTR was added into 1 mg ml^−1 soluble MDA-MB-231 lysate.
(§2) Recombinant expression of proteins by transient transfection. HEK 293T cells were grown to 50% confluency in 10 ml DMEM supplemented with 10% fetal bovine serum (FBS), penicillin, streptomycin and glutamine in 10 cm tissue culture dishes. 3 μg of DNA was diluted in 500 μL DMEM and 30 μL of PEI (MW 40,000, 1 mg ml^−1, Polysciences) were added. The mixture was incubated at room temperature for 30 min and added dropwise to the cells. Cells were grown for 48 h at 37° C. with 5% CO2. Cells were washed with cold PBS, scraped with cold PBS and cell pellets were isolated by centrifugation (1,400 g, 3 min, 4° C.), and stored at −80° C. until use. Cell pellets were resuspended in PBS, lysed by sonication and fractionated (100,000 g, 45 min) to yield soluble and membrane fractions. The soluble fraction was adjusted to a final protein concentration of 1 mg ml^−1 for gel-based ABPP experiments.
(§3) Direct labeling of recombinantly expressed proteins by gel-based ABPP. 50 μL of soluble HEK 293T proteome (1 mg ml^−1) expressing the respective protein (WT or KR mutant) or transfected with an empty vector were treated with 10 μM of the indicated probe for 1 h at room temperature. The samples were analyzed as described in the previous section. For quantification of relative labeling of the different protein variants, the intensity of labeling was determined by quantifying the integrated optical intensity of the bands using ImageLab 5.2.1 software (BioRad).

PFKP = target: T2, PFKP (Homo sapiens, UniProt Q01813); assay: as above; type: binding; settings: PFKP K688, KR mutant; 10 μM probe, 1 h
T2 construct: Flag; expressed in transfected cells; host or cells: HEK 293T, transient transfection, soluble lysate; cDNA clone 5180268 (Dharmacon)
T2 sequence (Q01813 1-784): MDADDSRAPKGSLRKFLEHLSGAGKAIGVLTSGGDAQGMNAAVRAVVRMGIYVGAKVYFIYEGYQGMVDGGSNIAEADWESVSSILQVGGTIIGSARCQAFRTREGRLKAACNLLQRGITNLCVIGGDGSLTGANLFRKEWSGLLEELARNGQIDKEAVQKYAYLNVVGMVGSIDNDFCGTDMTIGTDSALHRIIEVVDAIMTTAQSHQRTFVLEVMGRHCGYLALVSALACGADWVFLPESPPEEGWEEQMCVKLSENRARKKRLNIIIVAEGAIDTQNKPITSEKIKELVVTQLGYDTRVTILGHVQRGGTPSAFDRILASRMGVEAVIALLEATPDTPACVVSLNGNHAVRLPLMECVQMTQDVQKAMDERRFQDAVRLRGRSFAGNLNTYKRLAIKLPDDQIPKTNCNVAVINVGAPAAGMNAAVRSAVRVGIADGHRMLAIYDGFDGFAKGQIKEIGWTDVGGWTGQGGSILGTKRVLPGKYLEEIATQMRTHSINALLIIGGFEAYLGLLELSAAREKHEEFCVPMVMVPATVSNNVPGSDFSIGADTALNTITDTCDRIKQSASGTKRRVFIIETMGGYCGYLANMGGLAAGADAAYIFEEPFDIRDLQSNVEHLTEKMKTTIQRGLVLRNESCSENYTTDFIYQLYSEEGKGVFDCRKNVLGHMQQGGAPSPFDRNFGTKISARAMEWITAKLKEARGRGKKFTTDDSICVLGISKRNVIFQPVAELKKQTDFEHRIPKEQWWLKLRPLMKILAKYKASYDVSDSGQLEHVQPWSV
Text: as §1, §2, §3

| Compound | labeling of WT vs mutant protein by probe (PFKM) | labeling of WT vs mutant protein by probe (PFKP) |
| --- | --- | --- |
| C#CCCC(=O)Oc1c(F)c(F)c(F)c(F)c1F [probe 6, Pentafluorophenyl 4-pentynoate] | ND (the WT did not label more than the mutant (<2x difference quantified)) | HD (the WT labeled more than the mutant (>4x difference quantified)) |
| C#Cc1ccc(C(=O)Oc2c(F)c(F)c(F)c(F)c2F)cc1 [probe 13, Pentafluorophenyl 4-ethynylbenzoate] | PD (the WT labeled more than the mutant (>2x difference quantified)) | HD (the WT labeled more than the mutant (>4x difference quantified)) |
| Cc1cc(C)n2c1C=C1C=CC(CCC(=O)Oc3c(F)c(F)c(S(=O)(=O)[O-])c(F)c3F)=[N+]1[B-]2(F)F.[Na+] [probe 18, reference compound] | PD (the WT labeled more than the mutant (>2x difference quantified)) | PD (the WT labeled more than the mutant (>2x difference quantified)) |
| C#Cc1ccc(C(=O)Oc2ccccc2[N+](=O)[O-])cc1 [probe 10, 2-Nitrophenyl 4-ethynylbenzoate] | PD (the WT labeled more than the mutant (>2x difference quantified)) | HD (the WT labeled more than the mutant (>4x difference quantified)) |
| C#Cc1ccc(C(=O)Oc2c(F)c(F)cc(F)c2F)cc1 [probe 12, 2,3,5,6-Tetrafluorophenyl 4-ethynylbenzoate] | PD (the WT labeled more than the mutant (>2x difference quantified)) | HD (the WT labeled more than the mutant (>4x difference quantified)) |
| C#CCCC(=O)Oc1c(F)c(F)c(S(=O)(=O)[O-])c(F)c1F.[Na+] [probe 1, reference compound] | HD (the WT labeled more than the mutant (>4x difference quantified)) | HD (the WT labeled more than the mutant (>4x difference quantified)) |
